Blank lines part the entries; values can stand above or below the molecule they belong to. Bridge positions count the residues as written; N and C are the ends. Ends that are not written are not given here.
Experiments:
[1] = system: isolated, perfused guinea pig lung; experiment: Vasoconstrictor (agonist) activity, isolated perfused lung preparation, pulmonary artery pressure
Protocol: Isolated, Perfused Guinea Pig Lung: Another procedure for determining the vasoconstrictor action of the endothelin-active peptides and the blocking action of endothelin antagonists utilizes isolated, perfused guinea pig lung as described in more detail in Example 4, infra.
(§1) The vasoconstrictor activity of Et-1 or Et-3 alone, or in the presence of antagonist, was determined using an isolated, perfused lung preparation (Horgan, M. J., et al. J. Appl. Phsysiol., 63, 93-104 (1987)). Briefly, Hartley guinea pigs (400-500 g) of either sex were anesthetized with 50 mg/kg pentobarbital sodium. Following a tracheotomy, the thorax was opened, the lung and heart excised and the pulmonary artery cannulated. A wide cannula was placed in the left atrium. Perfusion was then started, within 5 min. of opening the thorax. The perfusion flow was set at 28 ml/min. When there was no visible sign of blood in the pulmonary venous effluent, recirculation of the perfusate was started, and pulmonary artery pressure was monitored. Endothelin activity was measured in an accumulative dose-dependent manner for agonist activity by addition of the peptides to a recirculating 300 ml bath. To assess antagonist activity, dose response curves with endothelin were done in the constant presence of antagonist.

[2] = system: vascular beds; conditions: a number of vascular beds; Anggard et al.; cited from earlier work
[3] = literature reports; cited from earlier work
[4] = system: Et-1 receptor; conditions: competitive and dose dependent manner; Fabregat et al.; cited from earlier work
[5] = system: endothelin responses; conditions: Fabregat et al.; cited from earlier work
[6] = system: Et-1 in Perfused Guinea Pig Lung; experiment: Antagonist activity against Et-1 in perfused guinea pig lung; conditions: for Pressure Increase Inhibition / Pressure Increase Ppa With Antagonist: antagonist 10^-7 M; for Pressure Increase Ppa With Antagonist: preperfused 5 min then coperfused
Protocol: as §1
The response with lungs preperfused, for 5 min. with [drawing 44] at a concentration of 10^-7 M before coperfusion with Et-1 was compared with the response determined on lungs perfused only with Et-1. (Results in both Tables 1 and 2 are based on the average of 4-7 determinations for each result).

[7] = system: Et-3 in perfused guinea pig lung; experiment: Specificity: lung preparations perfused with Et-3, with and without antagonist
Protocol: as §1
(§2) Specificity of [drawing 47] is illustrated in Table 2 which presents pressure increase data in similar lung preparations perfused with Et-3 and with other vasoconstrictor substances (alpha-thrombin and norepinephrine). As for the results shown in Table 1, pressure increase was determined on lung preparations with and without a 5 minute preperfusion step with 10^-7 M [drawing 48]

[8] = system: alpha-thrombin in perfused guinea pig lung; experiment: Specificity: lung preparations perfused with alpha-thrombin, with and without antagonist; conditions: α-Thrombin (10^-8 M); 5 minute preperfusion with 10^-7 M antagonist
Protocol: as §1, §2

[9] = system: norepinephrine in perfused guinea pig lung; experiment: Specificity: lung preparations perfused with norepinephrine, with and without antagonist; conditions: Norepinephrine (10^-7 M); 5 minute preperfusion with 10^-7 M antagonist
Protocol: as §1, §2

[10] = molecular target: endothelin receptors of the isolated, perfused guinea pig lung
[11] = molecular target: endothelin receptors of the isolated, perfused guinea pig lung; remark: listed apart in the source
[12] = isolated, perfused guinea pig lung

Sequence of [Dpr^1 -Asp^15 ]Et-1 (peptide): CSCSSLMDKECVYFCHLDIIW

Molecule: CC[C@H](C)[C@H](NC(=O)[C@H](CC(=O)O)NC(=O)[C@H](CC(C)C)NC(=O)[C@H](Cc1c[nH]cn1)NC(=O)[C@@H]1CSSC[C@H](N)C(=O)N[C@@H](CO)C(=O)N[C@H]2CSSC[C@H](NC(=O)[C@H](CCC(=O)O)NC(=O)[C@H](CCCCN)NC(=O)[C@H](CC(=O)O)NC(=O)[C@H](CCSC)NC(=O)[C@H](CC(C)C)NC(=O)[C@H](CO)NC(=O)[C@H](CO)NC2=O)C(=O)N[C@@H](C(C)C)C(=O)N[C@@H](Cc2ccc(O)cc2)C(=O)N[C@@H](Cc2ccccc2)C(=O)N1)C(=O)N[C@H](C(=O)N[C@@H](Cc1c[nH]c2ccccc12)C(=O)O)[C@@H](C)CC [Et-1]
Pressure Increase Ppa Without Antagonist ([1]; Et-1 Conc. 2 × 10^-10 M): 2.3 cm H2 O | Pressure Increase Ppa Without Antagonist ([1]; Et-1 Conc. 10^-9 M): 6.1 cm H2 O | Pressure Increase Ppa Without Antagonist ([1]; Et-1 Conc. 10^-10 M): 1.2 cm H2 O | concentration at which Et-1 is active (dose-dependent increase in pulmonary artery pressure, Ppa) [1, 12]: 10^-10 M | concentration giving a maximal response (increase in Ppa) [1, 12]: 10^-8 M | apparent potency order of vasoconstriction [2]: Et-2>Et-1>Et-3

Molecule: NC[C@H](O)c1ccc(O)c(O)c1 [Norepinephrine]
Ppa Without antagonist ([1]; Norepinephrine (10^-7 M)): 1.3 cm H2 O

Molecule: Et-2: endothelin isopeptide (CSCSSWLDKECVYFCHLDIIW; ends and bridges not checked; cysteine pairing not given here; UniProt P20800 49-69, looked up)
apparent potency order of vasoconstriction [2]: Et-2>Et-1>Et-3

Molecule: [Ala^3,11 ]Et-1: known Et-1 analog (Randall et al.) (CSASSLMDKEAVYFCHLDIIW; ends and bridges not checked; cysteine pairing not given here; UniProt P05305 53-73, looked up, variant C3A C11A)
endothelin activity [3]: shows endothelin activity

Molecule: [Ala^4 ]Et-1: known Et-1 analog (Nakajima et al.) (CSCASLMDKECVYFCHLDIIW; ends and bridges not checked; cysteine pairing not given here; UniProt P05305 53-73, looked up, variant S4A)
endothelin activity [3]: show appreciable endothelin activity

Molecule: [Ala^5 ]Et-1: known Et-1 analog (Nakajima et al.)
endothelin activity [3]: show appreciable endothelin activity

Molecule: [Asn^8 ]Et-1: known Et-1 analog (Nakajima et al.) (CSCSSLMNKECVYFCHLDIIW; ends and bridges not checked; cysteine pairing not given here; UniProt P05305 53-73, looked up, variant D8N)
endothelin activity [3]: show appreciable endothelin activity

Molecule: [D-Arg^1, D-Phe^5, D-Trp^7,9, Leu^11 ] substance P
inhibition of ^125 I-labelled Et-1 binding to an Et-1 receptor [4]: able to inhibit | blocking of endothelin responses [5]: blocks certain endothelin responses

Molecule: [Dpr^1 -Asp^15 ]Et-1
agonist activity (increase in Ppa) ([1]; doses as high as 1×10^-6 M): essentially no agonist activity | Pressure Increase Inhibition ([6]; Et-1 2 × 10^-10 M): 75% | Pressure Increase Ppa With Antagonist ([6]; Et-1 2 × 10^-10 M): 0.6 cm H2 O | Pressure Increase Inhibition ([6]; Et-1 10^-9 M): 65% | Pressure Increase Ppa With Antagonist ([6]; Et-1 10^-9 M): 2.1 cm H2 O | Pressure Increase Inhibition ([6]; Et-1 10^-10 M): 95% | Pressure Increase Ppa With Antagonist ([6]; Et-1 10^-10 M): 0.06 cm H2 O | blocking activity at higher doses of the analog ([6]; doses higher than 10^-7 M): did not substantially increase this blocking activity | Ppa With antagonist ([7]; Et-3 (10^-9 M), 5 minute preperfusion with 10^-7 M antagonist): 5.8 cm H2 O | antagonist activity against vasoconstricting substances other than Et-1 ([7]; lung preparations treated with Et-3, α-thrombin or norepinephrine): no antagonist activity | Ppa With antagonist [8]: 8.5 cm H2 O | Ppa With antagonist [9]: 1.3 cm H2 O

Pressure Increase Inhibition (%) of the Et-1 response, lung preperfused and coperfused with 10^-7 M antagonist [10]: 95%
Molecule: [Dpr^1 -Asp^15 ]Et-1 (peptide)

Molecule: [Gly^6 ]Et-1: known Et-1 analog (Nakajima et al.) (CSCSSGMDKECVYFCHLDIIW; ends and bridges not checked; cysteine pairing not given here; UniProt P05305 53-73, looked up, variant L6G)
endothelin activity [3]: show appreciable endothelin activity

Molecule: [Leu^9 ]Et-1: known Et-1 analog (Nakajima et al.) (CSCSSLMDLECVYFCHLDIIW; ends and bridges not checked; cysteine pairing not given here; UniProt P05305 53-73, looked up, variant K9L)
endothelin activity [3]: show appreciable endothelin activity

Molecule: [Phe^13 ]Et-1: known Et-1 analog (Nakajima et al.) (CSCSSLMDKECVFFCHLDIIW; ends and bridges not checked; cysteine pairing not given here; UniProt P05305 53-73, looked up, variant Y13F)
endothelin activity [3]: show appreciable endothelin activity

Molecule: [Phe^21 ]Et-1: known Et-1 analog (Nakajima et al.) (CSCSSLMDKECVYFCHLDIIF; ends and bridges not checked; cysteine pairing not given here; UniProt P05305 53-73, looked up, variant W21F)
endothelin activity [3]: show appreciable endothelin activity

Molecule: [Tyr^21 ]Et-1: known Et-1 analog (Nakajima et al.) (CSCSSLMDKECVYFCHLDIIY; ends and bridges not checked; cysteine pairing not given here; UniProt P05305 53-73, looked up, variant W21Y)
endothelin activity [3]: show appreciable endothelin activity

Ppa (cm H2O), isolated perfused guinea pig lung, Et-3 at 10^-9 M without antagonist [11]: 3.8 cm H2O
Molecule: CTCFTYKDKECVYYCHLDIIW (disulfide 1-15, 3-11) [Endothelin 3]

From US5492892A, “Endothelin antagonists” (priority 1994, dated 1996)
